For this experiment, the target named is TNFα trimer (Homo sapiens, UniProt P01375). The experiment can be described thus: TNFα FP Competitive Binding Assay. The note with it: FP binding assay; 20 nM TNFα trimer, 1 nM OregonGreen488 probe; read-out: TNF IC50. As to the method: TNFα FP Competitive Binding Assay
• 1. Assay Buffer: Prepare 1× Assay Buffer (Water with 47 mM HEPES, 47 mM NaCl, 0.9 mM EDTA, 0.0071% Triton X-100) by adding 25 mL of 1 M HEPES, 5 mL of 5 M NaCl, 1 mL of 0.5 M EDTA, and 375 μL of a 10% Triton X-100 stock to a fresh 500 mL bottle of water. • 2. Assay Mixture: Prepare fresh Assay Mixture containing 20 nM TNFα trimer (60 nM protein) and 1 nM 2′,7′-difluoro-3′,6′-dihydroxy-N-(2-(2-(2-((4-(isoquinolin-8-yl)-3-(4-(isoquinolin-8-yl)phenethoxy)benzyl)oxy)ethoxy)ethoxy)ethyl)-3-oxo-3H-spiro[isobenzofuran-1,9′-xanthene]-5-carboxamide probe in 1× Assay Buffer. Compound Plate Preparation Manual 12-Point 1:3 Dilution Plates: (384 Well Polypropylene Plates)
Top concentration of compounds, 10 mM in DMSO, dispensed in rows A-O in columns 1 and 13. Compounds are serially diluted 1:3 with DMSO in columns 2-12 or 14-24 using a 16-channel Matrix pipettor. Plates stored at −20° C.
Discovery Preps 12-Point 1:3 Dilution Plates: (384 Well Assay Plates)
Top concentration, 5 mM in DMSO, of compounds placed in rows A-O in columns 1 and 13. Compounds are serially diluted 1:3 with DMSO in columns 2-12 or 14-24. Compound solutions are dispensed into replicate assay plates at 410 nL per well. Plates stored at 4° C.
TNFα FP Competitive Binding Assay Protocol
• 1. Compound plates warmed to rt. • 2. Fresh Assay Mixture is prepared. • 3. Assay Mixture (20 μL) is dispensed each well of 384 assay plates using a Thermo Multidrop Combi or 16-channel Matrix pipettor. If Manual 12-point 1:3 Dilution Plates are to be tested, Assay Mix is dispensed into empty plates. Discovery Preps 12-point 1:3 Dilution Plates already contain 410 nL compound solution in DMSO. • 4. For Manual 12-point 1:3 Dilution Plates, 0.7 μL is manually transferred using a 16-channel Matrix pipettor to replicate assay plates containing 20 μL Assay Mixture for a final top compound concentration of 338 μM (3.4% DMSO). • 5. For Discovery Preps 12-point 1:3 Dilution Plates, 20 μL Assay Mixture added the 410 nL compound solution already in the plates yields a final top compound concentration of 100 μM (2.0% DMSO). • 6. Background subtraction controls are wells P1-P8 containing only Assay Buffer. The low % inhibition controls are wells P9-P16 containing only Assay Mix. The high % inhibition are wells P17-P24 containing only 1 nM 2′,7′-difluoro-3′,6′-dihydroxy-N-(2-(2-(2-((4-(isoquinolin-8-yl)-3-(4-(isoquinolin-8-yl)phenethoxy)benzyl)oxy)ethoxy)ethoxy)ethyl)-3-oxo-3H-spiro[isobenzofuran-1,9′-xanthene]-5-carboxamide probe in 1× Assay Buffer. • 7. Plates are incubated at rt for 18-24 h in 37° C. incubator (CO2 is off). • 8. Prior to reading the assay, the plates are placed in a dark cabinet to equilibrate at rt for one hour. • 9. Background-subtracted fluorescence polarization (mP) is measured using a PerkinElmer Envision plate reader. • 10. Raw data is entered into Assay Explorer and dose-response curves are generated using a variable slope curve. Supplies, Materials, and Reagents

What is called IC50 is the midpoint of a concentration-inhibition curve.

Sequence of TNFα trimer (P01375 77-233 limits assumed): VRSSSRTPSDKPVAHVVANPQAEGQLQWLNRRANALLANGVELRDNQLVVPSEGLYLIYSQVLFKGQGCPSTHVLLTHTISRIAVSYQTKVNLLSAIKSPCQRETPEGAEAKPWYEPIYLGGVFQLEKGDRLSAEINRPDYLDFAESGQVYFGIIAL

For `Cn1c(=O)c2ccc(-c3cnc(N4CCOCC4)nc3)cc2n1Cc1cnccc1Cl` [Example 1.17], the half-inhibitory concentration (IC50) was greater than 10 µM.

Turning to `Cc1ccc(OC(F)F)c(Cn2c3cc(-c4cnc(N5CCOCC5)nc4)ccc3c(=O)n2C)c1` [Example 1.18], the IC50 is less than 1 µM.

Turning to `Cc1ccc(C)c(Cn2c3cc(-c4cnc(N5CCOCC5)nc4)ccc3c(=O)n2C)c1` [Example 1.19], the 50% inhibitory concentration (IC50) was less than 1 µM.

For `Cn1c(=O)c2ccc(-c3cnc(N4CCOC(C)(C)C4)nc3)cc2n1Cc1ccccc1OC(F)F` [Example 2, 1-(2-(Difluoromethoxy)benzyl)-6-(2-(2,2-dimethylmorpholino)pyrimidin-5-yl)-2-methyl-1H-indazol-3(2H)-one], the IC50 is less than 1 µM.

As to `Cn1c(=O)c2ccc(-c3cnc(N4CCN(C(N)=O)CC4)nc3)cc2n1Cc1ccccc1OC(F)F` [Example 2.1], the IC50 is less than 1 µM.

With `COC[C@H]1CCCN1c1ncc(-c2ccc3c(=O)n(C)n(Cc4ccccc4OC(F)F)c3c2)cn1` [Example 2.2], the IC50 was less than 1 µM.

With `CC(=O)N1CCN(c2ncc(-c3ccc4c(=O)n(C)n(Cc5ccccc5OC(F)F)c4c3)cn2)CC1` [Example 2.3], the concentration for half-maximal inhibition (IC50) is less than 1 µM.

In the case of `Cn1c(=O)c2ccc(-c3cnc(N4CC5(COC5)C4)nc3)cc2n1Cc1ccccc1OC(F)F` [Example 2.4], the IC50 is 1 to 10 µM.

In the case of `Cn1c(=O)c2ccc(-c3cnc(N4CC[C@@H](O)C4)nc3)cc2n1Cc1ccccc1OC(F)F` [Example 2.5], the IC50 is greater than 10 µM.

For `Cn1c(=O)c2ccc(-c3cnc(N4CC[C@@H](C(=O)O)C4)nc3)cc2n1Cc1ccccc1OC(F)F` [Example 2.6], the concentration for half-maximal inhibition (IC50) is greater than 10 µM.

Turning to `Cn1c(=O)c2ccc(-c3cnc(NCC4CNC(=O)C4)nc3)cc2n1Cc1ccccc1OC(F)F` (stereo not shown) [Example 2.7], the IC50 lay within 1 to 10 µM.

On to `Cn1c(=O)c2ccc(-c3cnc(N4CC(C5COC5)C4)nc3)cc2n1Cc1ccccc1OC(F)F` [Example 2.8], for which the IC50 lay in the range of 1 to 10 µM.

For the compound `Cn1c(=O)c2ccc(-c3cnc(N4CC(O)C4)nc3)cc2n1Cc1ccccc1OC(F)F` [Example 2.9], the IC50 fell in the range of 1 to 10 µM.

As for `Cn1c(=O)c2ccc(-c3cnc(NC4COC4)nc3)cc2n1Cc1ccccc1OC(F)F` [Example 2.10], the concentration for half-maximal inhibition (IC50) was 1 to 10 µM.

Consider `Cn1c(=O)c2ccc(-c3cnc(N4CC(CO)C4)nc3)cc2n1Cc1ccccc1OC(F)F` [Example 2.11], for which the IC50 was in the range of 1 to 10 µM.

On to `Cn1c(=O)c2ccc(-c3cnc(NCCO)nc3)cc2n1Cc1ccccc1OC(F)F` [Example 2.12], for which the half-maximal inhibitory concentration (IC50) was 1 to 10 µM.

In the case of `Cn1c(=O)c2ccc(-c3cnc(N4CC(C(=O)O)C4)nc3)cc2n1Cc1ccccc1OC(F)F` [Example 2.13], the IC50 was greater than 10 µM.

For the compound `Cn1c(=O)c2ccc(-c3cnc(N4CC5(CC5C(=O)O)C4)nc3)cc2n1Cc1ccccc1OC(F)F` (stereo not shown) [Example 2.14], the IC50 was greater than 10 µM.

For the compound `Cn1c(=O)c2ccc(-c3cnc(N4CC[C@H](C(=O)O)C4)nc3)cc2n1Cc1ccccc1OC(F)F` [Example 2.15], the concentration for half-maximal inhibition (IC50) was greater than 10 µM.

Turning to `CN1CC(CNc2ncc(-c3ccc4c(=O)n(C)n(Cc5ccccc5OC(F)F)c4c3)cn2)CC1=O` (stereo not shown) [Example 2.16], the 50% inhibitory concentration (IC50) was in the range of 1 to 10 µM.

For the compound `Cn1c(=O)c2ccc(-c3cnc(N4CC5(CC(C(=O)O)C5)C4)nc3)cc2n1Cc1ccccc1OC(F)F` [Example 2.17], the IC50 fell in the range of 1 to 10 µM.

With `Cn1c(=O)c2ccc(-c3cnc(N4CC(CC(=O)O)C4)nc3)cc2n1Cc1ccccc1OC(F)F` [Example 2.18], the IC50 is greater than 10 µM.

As for `Cn1c(=O)c2ccc(-c3cnc(NC4CCCCNC4=O)nc3)cc2n1Cc1ccccc1OC(F)F` (stereo not shown) [Example 2.19], the IC50 lay within 1 to 10 µM.

As for `Cn1c(=O)c2ccc(-c3cnc(NC4CCOC4)nc3)cc2n1Cc1ccccc1OC(F)F` (stereo not shown) [Example 2.20], the half-maximal inhibitory concentration (IC50) was in the range of 1 to 10 µM.

Consider `Cn1c(=O)c2ccc(-c3cnc(NC4CCCOC4)nc3)cc2n1Cc1ccccc1OC(F)F` (stereo not shown) [Example 2.21], for which the 50% inhibitory concentration (IC50) was 1 to 10 µM.

In the case of `COCCCNc1ncc(-c2ccc3c(=O)n(C)n(Cc4ccccc4OC(F)F)c3c2)cn1` [Example 2.22], the IC50 was 1 to 10 µM.

Consider `Cn1c(=O)c2ccc(-c3cnc(N4CCN5C(=O)CCC5C4)nc3)cc2n1Cc1ccccc1OC(F)F` (stereo not shown) [Example 2.23], for which the 50% inhibitory concentration (IC50) was less than 1 µM.

`Cn1c(=O)c2ccc(-c3cnc(N[C@@H]4CCOC4)nc3)cc2n1Cc1ccccc1OC(F)F` [Example 2.24]: the IC50 is 1 to 10 µM.

As to `Cn1c(=O)c2ccc(-c3cnc(N4CCN5C(=O)OC[C@H]5C4)nc3)cc2n1Cc1ccccc1OC(F)F` [Example 2.25], the IC50 was less than 1 µM.

Regarding `Cn1c(=O)c2ccc(-c3cnc(N4CCN5C(=O)OC[C@@H]5C4)nc3)cc2n1Cc1ccccc1OC(F)F` [Example 2.26], the IC50 is less than 1 µM.

In the case of `Cn1c(=O)c2ccc(-c3cnc(N4CCN5C(=O)NCC5C4)nc3)cc2n1Cc1ccccc1OC(F)F` (stereo not shown) [Example 2.27, 7-(5-(1-(2-(Difluoromethoxy)benzyl)-2-methyl-3-oxo-2,3-dihydro-1H-indazol-6-yl)pyrimidin-2-yl)hexahydroimidazo[1,5-a]pyrazin-3(2H)-one], the IC50 was less than 1 µM.

Consider `Cn1c(=O)c2ccc(-c3cnc(N4CCC(c5nsc(=O)[nH]5)CC4)nc3)cc2n1Cc1ccccc1OC(F)F` [Example 2.28], for which the concentration for half-maximal inhibition (IC50) fell in the range of 1 to 10 µM.

As to `CC(=O)N1CC[C@H](Nc2ncc(-c3ccc4c(=O)n(C)n(Cc5ccccc5OC(F)F)c4c3)cn2)C1` [Example 3, (S)-6-(2-((1-Acetylpyrrolidin-3-yl)amino)pyrimidin-5-yl)-1-(2-(difluoromethoxy)benzyl)-2-methyl-1H-indazol-3(2H)-one], the IC50 was 1 to 10 µM.

`Cn1c(=O)c2ccc(-c3cc(N4CCOCC4)ncc3Cl)cc2n1Cc1cccc(F)c1` [Example 3.1]: the half-inhibitory concentration (IC50) was greater than 10 µM.

On to `Cn1c(=O)c2ccc(-c3cnc(CN4CC(C(=O)O)C4)nc3)cc2n1Cc1ccccc1OC(F)F` [Example 4, 1-((5-(1-(2-(Difluoromethoxy)benzyl)-2-methyl-3-oxo-2,3-dihydro-1H-indazol-6-yl)pyrimidin-2-yl)methyl)azetidine-3-carboxylic acid], for which the half-maximal inhibitory concentration (IC50) was greater than 10 µM.

As for `Cn1c(=O)c2ccc(-c3cc(N4CCOCC4)ncc3Cl)cc2n1Cc1ccccc1OC(F)F` [Example 4.1], the half-maximal inhibitory concentration (IC50) was greater than 10 µM.

As for `Cn1c(=O)c2ccc(-c3cnc(N4CCOCC4)nc3)cc2n1Cc1ccccc1OC(F)F` [Example 5, 1-(2-(Difluoromethoxy)benzyl)-2-methyl-6-(2-morpholinopyrimidin-5-yl)-1H-indazol-3(2H)-one], the IC50 is less than 1 µM.

In the case of `Cn1c(=O)c2ccc(-c3cnc(N4CCNC(=O)C4)nc3)cc2n1Cc1ccccc1OC(F)F` [Example 5.1], the concentration for half-maximal inhibition (IC50) is 1 to 10 µM.

As for `Cn1c(=O)c2ccc(-c3ccc(N4CCOCC4)nc3)cc2n1Cc1ccccc1OC(F)F` [Example 5.2], the IC50 lay in the range of 1 to 10 µM.

Consider `Cn1c(=O)c2ccc(-c3ccc(N4CCNC(=O)C4)nc3)cc2n1Cc1ccccc1OC(F)F` [Example 5.3], for which the IC50 fell in the range of 1 to 10 µM.

With `COc1ncc(-c2ccc3c(=O)n(C)n(Cc4ccccc4OC(F)F)c3c2)cn1` [Example 5.4], the IC50 lay in the range of 1 to 10 µM.

As for `Cn1c(=O)c2ccc(-c3cnc(N4CCC(C(=O)O)CC4)nc3)cc2n1Cc1ccccc1OC(F)F` [Example 5.5], the IC50 lay in the range of 1 to 10 µM.

With `Cn1c(=O)c2ccc(-c3ccnc(N4CCOCC4)c3)cc2n1Cc1ccccc1OC(F)F` [Example 5.6], the IC50 was greater than 10 µM.

In the case of `Cn1c(=O)c2ccc(-c3cnn(C4CCOCC4)c3)cc2n1Cc1ccccc1OC(F)F` [Example 5.7], the IC50 was greater than 10 µM.

Regarding `O=c1[nH]n(Cc2ccccc2OC(F)F)c2cc(-c3cnc(N4CCOCC4)nc3)ccc12` [Example 6.1, 1-(2-(difluoromethoxy)benzyl)-6-(2-morpholinopyrimidin-5-yl)-1H-indazol-3(2H)-one], the half-maximal inhibitory concentration (IC50) was greater than 10 µM.

For the compound `Cn1c(=O)c2ccc(-c3cnc(N4CCOCC4)nc3)cc2n1Cc1cc(Cl)ccc1Cl` [Example 7.1], the IC50 is less than 1 µM.

These data come from patent publication US10160748B2 (AbbVie Inc., priority 2015, dated 2018).
